Assay results reported in the supplement of paper PMC10883282.
± gives the standard deviation of the averaged measurements.

Assays:
Assay in all cases: relative viability vs DMSO control (72 h) (fraction); higher = more viable cells
MES-SA = tested on: MES-SA
Method in brief: (§1)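 Serially diluted compound, 2.5 µl from source plates spanning 10 mM to 0.0002 mM, was added 24 h after sarcoma cell lines were seeded in 384-well plates at densities targeting 80–90% confluence. Plates then sat 72 h at 37 °C, 5% CO2, with 0.1% DMSO vehicle and a 5 µM positive control. Relative viability came from ATPLite as percent growth, averaged over up to triplicate wells, and was rescaled with 1 as full and 0 as none.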

SK-LMS-1 = tested on: SK-LMS-1
Method in brief: as §1

SK-ES-1 = tested on: SK-ES-1
Method in brief: as §1

SYO-1 = tested on: SYO-1
Method in brief: as §1

SW1353 = tested on: SW1353
Method in brief: as §1

RD-ES = tested on: RD-ES
Method in brief: as §1

VA-ES-BJ = tested on: VA-ES-BJ
Method in brief: as §1

HT1080 = tested on: HT1080
Method in brief: as §1

RD = tested on: RD
Method in brief: as §1

KHOS-240S = tested on: KHOS-240S
Method in brief: as §1

SW982 = tested on: SW982
Method in brief: as §1

G401 = tested on: G401
Method in brief: as §1

C#Cc1cccc(Nc2ncnc3cc(OCCOC)c(OCCOC)cc23)c1 [Erlotinib]
Conditions | relative viability
G401, 0.00017 µM | 1.04 ± 0.02
G401, 0.00051 µM | 1.05 ± 0.033
G401, 0.00152 µM | 1.02 ± 0.034
G401, 0.00457 µM | 1.04 ± 0.013
G401, 0.01372 µM | 1.01 ± 0.025
G401, 0.04115 µM | 1.03 ± 0.014
G401, 0.1235 µM | 1.018 ± 0.0056
G401, 0.3704 µM | 1.05 ± 0.013
G401, 1.111 µM | 1.016 ± 0.01
G401, 3.333 µM | 0.9684 ± 0.0049
G401, 10 µM | 0.787 ± 0.042
HT1080, 0.00017 µM | 1.09 ± 0.011
HT1080, 0.00051 µM | 1.1 ± 0.048
HT1080, 0.00152 µM | 1.09 ± 0.048
HT1080, 0.00457 µM | 1.08 ± 0.036
HT1080, 0.01372 µM | 1.09 ± 0.066
HT1080, 0.04115 µM | 1.12 ± 0.063
HT1080, 0.1235 µM | 1.11 ± 0.038
HT1080, 0.3704 µM | 1.097 ± 0.0094
HT1080, 1.111 µM | 1.1 ± 0.045
HT1080, 3.333 µM | 1.16 ± 0.021
HT1080, 10 µM | 0.942 ± 0.034
KHOS-240S, 0.00017 µM | 1.06 ± 0.016
KHOS-240S, 0.00051 µM | 1.07 ± 0.035
KHOS-240S, 0.00152 µM | 1.05 ± 0.036
KHOS-240S, 0.00457 µM | 1.08 ± 0.042
KHOS-240S, 0.01372 µM | 1.06 ± 0.045
KHOS-240S, 0.04115 µM | 1.07 ± 0.023
KHOS-240S, 0.1235 µM | 1.087 ± 0.01
KHOS-240S, 0.3704 µM | 1.08 ± 0.026
KHOS-240S, 1.111 µM | 1.062 ± 0.0098
KHOS-240S, 3.333 µM | 1.06 ± 0.019
KHOS-240S, 10 µM | 0.949 ± 0.023
MES-SA, 0.00017 µM | 0.95 ± 0.035
MES-SA, 0.00051 µM | 0.973 ± 0.035
MES-SA, 0.00152 µM | 0.979 ± 0.018
MES-SA, 0.00457 µM | 0.945 ± 0.014
MES-SA, 0.01372 µM | 0.96 ± 0.023
MES-SA, 0.04115 µM | 0.972 ± 0.024
MES-SA, 0.1235 µM | 0.959 ± 0.035
MES-SA, 0.3704 µM | 0.948 ± 0.04
MES-SA, 1.111 µM | 0.914 ± 0.026
MES-SA, 3.333 µM | 0.687 ± 0.03
MES-SA, 10 µM | 0.458 ± 0.017
RD, 0.00017 µM | 1.08 ± 0.048
RD, 0.00051 µM | 1.09 ± 0.055
RD, 0.00152 µM | 1.09 ± 0.035
RD, 0.00457 µM | 1.08 ± 0.051
RD, 0.01372 µM | 1.07 ± 0.027
RD, 0.04115 µM | 1.09 ± 0.043
RD, 0.1235 µM | 1.09 ± 0.055
RD, 0.3704 µM | 1.1 ± 0.059
RD, 1.111 µM | 1.12 ± 0.084
RD, 3.333 µM | 1.04 ± 0.055
RD, 10 µM | 0.786 ± 0.032
RD-ES, 0.00017 µM | 0.971 ± 0.046
RD-ES, 0.00051 µM | 0.974 ± 0.018
RD-ES, 0.00152 µM | 0.975 ± 0.047
RD-ES, 0.00457 µM | 0.992 ± 0.041
RD-ES, 0.01372 µM | 0.965 ± 0.077
RD-ES, 0.04115 µM | 0.967 ± 0.05
RD-ES, 0.1235 µM | 0.998 ± 0.018
RD-ES, 0.3704 µM | 0.994 ± 0.046
RD-ES, 1.111 µM | 0.987 ± 0.042
RD-ES, 3.333 µM | 0.936 ± 0.068
RD-ES, 10 µM | 0.691 ± 0.071
SK-ES-1, 0.00017 µM | 1.048 ± 0.0034
SK-ES-1, 0.00051 µM | 1.04 ± 0.071
SK-ES-1, 0.00152 µM | 1.08 ± 0.021
SK-ES-1, 0.00457 µM | 1.07 ± 0.037
SK-ES-1, 0.01372 µM | 1.09 ± 0.012
SK-ES-1, 0.04115 µM | 1.07 ± 0.037
SK-ES-1, 0.1235 µM | 1.05 ± 0.04
SK-ES-1, 0.3704 µM | 1.03 ± 0.036
SK-ES-1, 1.111 µM | 0.85 ± 0.034
SK-ES-1, 3.333 µM | 0.567 ± 0.032
SK-ES-1, 10 µM | 0.324 ± 0.021
SK-LMS-1, 0.00017 µM | 1.06 ± 0.023
SK-LMS-1, 0.00051 µM | 1.06 ± 0.048
SK-LMS-1, 0.00152 µM | 1.09 ± 0.042
SK-LMS-1, 0.00457 µM | 1.07 ± 0.014
SK-LMS-1, 0.01372 µM | 1.09 ± 0.017
SK-LMS-1, 0.04115 µM | 1.12 ± 0.078
SK-LMS-1, 0.1235 µM | 1.07 ± 0.037
SK-LMS-1, 0.3704 µM | 1.11 ± 0.042
SK-LMS-1, 1.111 µM | 1.07 ± 0.025
SK-LMS-1, 3.333 µM | 0.941 ± 0.028
SK-LMS-1, 10 µM | 0.698 ± 0.029
SW982, 0.00017 µM | 1.06 ± 0.025
SW982, 0.00051 µM | 1.06 ± 0.034
SW982, 0.00152 µM | 1.08 ± 0.046
SW982, 0.00457 µM | 1.08 ± 0.046
SW982, 0.01372 µM | 1.06 ± 0.025
SW982, 0.04115 µM | 1.08 ± 0.05
SW982, 0.1235 µM | 1.07 ± 0.06
SW982, 0.3704 µM | 1.07 ± 0.042
SW982, 1.111 µM | 0.9728 ± 0.0081
SW982, 3.333 µM | 0.689 ± 0.079
SW982, 10 µM | 0.466 ± 0.019
SW1353, 0.00017 µM | 1.02 ± 0.032
SW1353, 0.00051 µM | 1.03 ± 0.012
SW1353, 0.00152 µM | 1.043 ± 0.0096
SW1353, 0.00457 µM | 1.02 ± 0.022
SW1353, 0.01372 µM | 1.04 ± 0.043
SW1353, 0.04115 µM | 1.01 ± 0.038
SW1353, 0.1235 µM | 0.955 ± 0.016
SW1353, 0.3704 µM | 0.928 ± 0.016
SW1353, 1.111 µM | 0.889 ± 0.022
SW1353, 3.333 µM | 0.812 ± 0.05
SW1353, 10 µM | 0.695 ± 0.016
SYO-1, 0.00017 µM | 0.999 ± 0.029
SYO-1, 0.00051 µM | 0.998 ± 0.021
SYO-1, 0.00152 µM | 0.978 ± 0.043
SYO-1, 0.00457 µM | 0.979 ± 0.047
SYO-1, 0.01372 µM | 0.982 ± 0.041
SYO-1, 0.04115 µM | 0.9892 ± 0.0045
SYO-1, 0.1235 µM | 0.967 ± 0.035
SYO-1, 0.3704 µM | 0.991 ± 0.029
SYO-1, 1.111 µM | 0.962 ± 0.017
SYO-1, 3.333 µM | 0.92 ± 0.025
SYO-1, 10 µM | 0.724 ± 0.043
VA-ES-BJ, 0.00017 µM | 1.088 ± 0.0097
VA-ES-BJ, 0.00051 µM | 1.08 ± 0.047
VA-ES-BJ, 0.00152 µM | 1.08 ± 0.027
VA-ES-BJ, 0.00457 µM | 1.08 ± 0.017
VA-ES-BJ, 0.01372 µM | 1.06 ± 0.019
VA-ES-BJ, 0.04115 µM | 1.08 ± 0.036
VA-ES-BJ, 0.1235 µM | 1.09 ± 0.013
VA-ES-BJ, 0.3704 µM | 1.03 ± 0.024
VA-ES-BJ, 1.111 µM | 1.01 ± 0.032
VA-ES-BJ, 3.333 µM | 0.888 ± 0.029
VA-ES-BJ, 10 µM | 0.642 ± 0.029
